Results published in patent publication US8299073B2, “P38 MAP kinase inhibitors” (Respivert Ltd., priority 2008, dated 2012).
Like-named read-outs stand apart in the source and are kept apart here.

Legend:
[1] = tested on: Differentiated U937 cells; assay: MTT assay (loss of cell viability); format: cell-based, human; details: for MTT 4 hr / MTT 24 hr: loss of cell viability, 10 ug/ml
Experimental: Differentiated U937 cells were pre-incubated with compound for 4 hrs in 5% FCS or 10% FCS for 24 hrs and 72 hr. The supernatant was replaced with 200 ul of new media and 10 μL of MTT stock solution (5 mg/mL) added to each well. After 1 hr incubation, the media were removed, 200 μL of DMSO added to each well and the plates were shaken lightly for 1 hr prior to reading the absorbance at 550 nm.
The percentage loss of cell viability was calculated for each well relative to vehicle (0.5% DMSO)-treatment. Consequently an apparent increase in cell viability for drug treatment relative to vehicle is tabulated as a negative percentage.

[2] = tested on: LPS-induced TNFα release in THP-1 cells; assay: LPS-induced TNF alpha release in THP-1 cells; format: cell-based; details: Homo sapiens
Experimental: THP-1, human monocytic cell line, was also used for this assay. THP-1 cells were stimulated with 1 μg/ml of LPS (from E. coli: O111:B4, Sigma) for 4 hrs, and the supernatant collected for determination of TNFα concentration.
THP-1 cells, a human monocytic cell line, were stimulated with 1 μg/ml of LPS (from E. coli; O111:B4, Sigma) for 4 hr and the supernatant collected for determination of TNFα concentration by sandwich ELISA (Duo-set, R&D systems). The inhibition of TNFα production was calculated at each concentration by comparison with vehicle control.

[3] = target: T1, p38 MAPK alpha (MAPK14: Invitrogen) (Homo sapiens, UniProt Q16539); assay: Enzyme inhibition assay (FRET, Z-LYTE), p38 MAPK alpha, via activation of MAPKAP-K2; format: biochemical; details: read-out: IC50 values p38α enzyme
T1 construct: purchased Invitrogen

[4] = target: T2, recombinant, phosphorylated p38 MAPK gamma (MAPK12:Millipore) (Homo sapiens, UniProt P53778); assay: Enzyme inhibition assay (FRET, Z-LYTE), p38 MAPK gamma; format: biochemical; details: read-out: IC50 values P38γ enzyme
T2 construct: purchased Millipore
T2 sequence (P53778 1-367): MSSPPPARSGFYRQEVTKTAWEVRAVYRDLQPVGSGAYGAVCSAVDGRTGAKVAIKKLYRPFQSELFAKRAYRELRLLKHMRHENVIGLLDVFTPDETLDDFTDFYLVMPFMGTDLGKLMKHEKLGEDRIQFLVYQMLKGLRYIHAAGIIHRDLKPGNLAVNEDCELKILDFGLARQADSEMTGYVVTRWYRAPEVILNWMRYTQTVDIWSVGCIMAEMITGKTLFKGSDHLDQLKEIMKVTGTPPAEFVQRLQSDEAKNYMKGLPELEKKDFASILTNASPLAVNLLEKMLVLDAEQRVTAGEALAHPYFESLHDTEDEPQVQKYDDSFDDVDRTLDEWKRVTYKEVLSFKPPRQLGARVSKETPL
Experimental: The enzyme inhibitory activity of compound was determined by fluorescence resonance energy transfer (FRET) using synthetic peptides labelled with both donor and acceptor fluorophores (Z-LYTE, Invitrogen). Briefly, recombinant, phosphorylated p38 MAPK gamma (MAPK12:Millipore) was diluted in HEPES buffer, mixed with compound at desired final concentrations and incubated for two hours at room temperature. The FRET peptide (2 μM) and ATP (100 uM) were next added to the enzyme/compound mixture and incubated for one hour. Development reagent (protease) was added for one hour prior to detection in a fluorescence microplate reader. The site-specific protease only cleaves non-phosphorylated peptide and eliminates the FRET signal. Phosphorylation levels of each reaction were calculated using the ratio of coumarin emission (donor) over fluorescein emission (acceptor) with high ratios indicating high phosphorylation and low ratios, low phosphorylation levels.

[5] = tested on: LPS-induced TNFα release in differentiated U937 cells; assay: LPS-induced TNF alpha release in differentiated U937 cells; format: cell-based
Experimental: U937 cells, human monocytic cell line, were differentiated to macrophage-type cells by incubation with phorbol myristate acetate (PMA; 100 ng/ml) for 48 to 72 hours. Where appropriate, cells were pre-incubated with final concentrations of compound for 2 hrs. Cells were then stimulated with 0.1 μg/mL of LPS (from E. coli: O111:B4, Sigma) for 4 hrs, and the supernatant collected for determination of TNFα concentration by sandwich ELISA (Duo-set, R&D systems).

[6] = THP-1, LPS-induced TNFα release, read-out: IC50 values THP-1 cells
[7] = Homo sapiens; read-out: R-EC50 values d-U937 cells
[8] = THP-1, read-out: IC50 values THP-1 cells
[9] = Homo sapiens, read-out: R-EC50 values d-U937 cells

T1 sequence (Q16539 whole entry): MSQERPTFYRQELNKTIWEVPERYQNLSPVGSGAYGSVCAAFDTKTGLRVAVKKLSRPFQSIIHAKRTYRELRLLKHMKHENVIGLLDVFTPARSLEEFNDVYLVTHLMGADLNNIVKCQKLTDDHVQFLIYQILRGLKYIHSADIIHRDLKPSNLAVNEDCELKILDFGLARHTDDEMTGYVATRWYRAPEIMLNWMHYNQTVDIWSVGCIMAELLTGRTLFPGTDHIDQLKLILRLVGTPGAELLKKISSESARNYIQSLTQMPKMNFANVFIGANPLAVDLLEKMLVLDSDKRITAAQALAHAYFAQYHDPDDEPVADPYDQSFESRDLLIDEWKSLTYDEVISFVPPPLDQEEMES

## COCC(=O)Nc1nccc(COc2ccc(NC(=O)Nc3cc(C(C)(C)C)nn3-c3ccc(C)cc3)c3ccccc23)n1 [Example 50, N-(4-((4-(3-(3-tert-Butyl-1-p-tolyl-1H-pyrazol-5-yl)ureido)naphthalen-1-yloxy)methyl)pyrimidin-2-yl)-2-methoxyacetamide]
[1]
  MTT 4 hr: − (− <30%)
  MTT 24 hr: − (− <30%)
[2]; [6]
  IC50: < 500 nM
[3]
  IC50: < 10 nM
[4]
  IC50: > 5000 nM
[5]; [7]
  EC50: < 10 nM

## CO[C@@H](C)C(=O)Nc1cc(COc2ccc(NC(=O)Nc3cc(C(C)(C)C)nn3-c3ccc(C)cc3)c3ccccc23)ccn1 [Example 4, (S)-N-(4-((4-(3-(3-tert-Butyl-1-p-tolyl-1H-pyrazol-5-yl)ureido)naphthalen-1-yloxy)methyl)pyridin-2-yl)-2-methoxypropanamide]
[1]
  MTT 4 hr: − (− <30%)
  MTT 24 hr: − (− <30%)
[2]; [6]
  IC50: < 10 nM
[3]
  IC50: < 500 nM
[4]
  IC50: < 500 nM
[5]; [7]
  EC50: < 10 nM

## Cc1ccc(-n2nc(C(C)(C)C)cc2NC(=O)Nc2ccc(OCc3ccnc(NC(=O)CCS(C)(=O)=O)c3)c3ccccc23)cc1 [Example 17, N-(4-((4-(3-(3-tert-Butyl-1-p-tolyl-1H-pyrazol-5-yl)ureido)naphthalen-1-yloxy)methyl)pyridin-2-yl)-3-(methylsulfonyl)propanamide]
[1]
  MTT 4 hr: − (− <30%)
  MTT 24 hr: − (− <30%)
[2]; [6]
  IC50: < 10 nM
[3]
  IC50: < 10 nM
[4]
  IC50: < 500 nM
[5]; [7]
  EC50: < 10 nM

## Cc1ccc(-n2nc(C(C)(C)C)cc2NC(=O)Nc2ccc(Oc3ccnc(NC(=O)CS(C)(=O)=O)c3)c3ccccc23)cc1 [Example 51, N-(4-(4-(3-(3-tert-Butyl-1-p-tolyl-1H-pyrazol-5-yl)ureido)naphthalen-1-yloxy)pyridin-2-yl)-2-(methylsulfonyl)acetamide]
[1]
  MTT 4 hr: − (− <30%)
  MTT 24 hr: + (+ >30% at 10 ug/ml)
[2]; [8]
  IC50: < 10 nM
[5]; [9]
  EC50: < 10 nM

## Cc1ccc(-n2nc(C(C)(C)C)cc2NC(=O)Nc2ccc(OCc3ccnc(NC(=O)CSCCN4CCOCC4)c3)c3ccccc23)cc1 [Example 31, N-(4-((4-(3-(3-tert-Butyl-1-p-tolyl-1H-pyrazol-5-yl)ureido)naphthalen-1-yloxy)methyl)pyridin-2-yl)-2-(2-morpholinoethylthio)acetamide]
[1]
  MTT 4 hr: − (− <30%)
  MTT 24 hr: + (+ >30% at 10 ug/ml)
[2]; [6]
  IC50: < 10 nM
[3]
  IC50: < 500 nM
[4]
  IC50: < 500 nM
[5]; [7]
  EC50: < 10 nM

## Cc1ccc(-n2nc(C(C)(C)C)cc2NC(=O)Nc2ccc(OCc3ccnc(NC(=O)[C@H]4COCCN4)c3)c3ccccc23)cc1 [Example 10, (R)-N-(4-((4-(3-(3-tert-Butyl-1-p-tolyl-1H-pyrazol-5-yl)ureido)naphthalen-1-yloxy)methyl)pyridin-2-yl)morpholine-3-carboxamide]
[1]
  MTT 4 hr: − (− <30%)
  MTT 24 hr: − (− <30%)
[2]; [6]
  IC50: < 10 nM
[3]
  IC50: < 500 nM
[4]
  IC50: < 5000 nM
[5]; [7]
  EC50: < 10 nM

## CNC(C)(C)C(=O)Nc1cc(COc2ccc(NC(=O)Nc3cc(C(C)(C)C)nn3-c3ccc(C)cc3)c3ccccc23)ccn1 [Example 8, N-(4-((4-(3-(3-tert-Butyl-1-p-tolyl-1H-pyrazol-5-yl)ureido)naphthalen-1-yloxy)methyl)pyridin-2-yl)-2-methyl-2-(methylamino)propanamide]
[1]
  MTT 4 hr: − (− <30%)
  MTT 24 hr: + (+ >30% at 10 ug/ml)
[2]; [6]
  IC50: < 10 nM
[3]
  IC50: < 500 nM
[4]
  IC50: < 5000 nM
[5]; [7]
  EC50: < 10 nM

## COCCOCCSCC(=O)Nc1cc(COc2ccc(NC(=O)Nc3cc(C(C)(C)C)nn3-c3ccc(C)cc3)c3ccccc23)ccn1 [Example 30, N-(4-((4-(3-(3-tert-Butyl-1-p-tolyl-1H-pyrazol-5-yl)ureido)naphthalen-1-yloxy)methyl)pyridin-2-yl)-2-(2-(2-methoxyethoxy)ethylthio)acetamide]
[1]
  MTT 4 hr: − (− <30%)
  MTT 24 hr: − (− <30%)
[2]; [6]
  IC50: < 10 nM
[3]
  IC50: < 500 nM
[4]
  IC50: < 500 nM
[5]; [7]
  EC50: < 10 nM

## CNC(=O)Nc1cnccc1COc1ccc(NC(=O)Nc2cc(C(C)(C)C)nn2-c2ccc(C)cc2)c2ccccc12 [Example 34, 1-(4-((3-Methylureidopyridin-4-yl)methoxy)naphthalen-1-yl)-3-(3-tert-butyl-1-p-tolyl-1H-pyrazol-5-yl)urea]
[1]
  MTT 4 hr: + (+ >30% at 10 ug/ml)
  MTT 24 hr: − (− <30%)
[2]; [6]
  IC50: < 500 nM
[4]
  IC50: < 5000 nM
[5]; [7]
  EC50: < 500 nM

## COCC(=O)Nc1cc(C(C)COc2ccc(NC(=O)Nc3cc(C(C)(C)C)nn3-c3ccc(C)cc3)c3ccccc23)ccn1 (centres unmarked) [Example 47, N-(4-(1-(4-(3-(3-tert-Butyl-1-p-tolyl-1H-pyrazol-5-yl)ureido)naphthalen-1-yloxy)propan-2-yl)pyridin-2-yl)-2-methoxyacetamide]
[1]
  MTT 4 hr: − (− <30%)
  MTT 24 hr: − (− <30%)
[2]; [6]
  IC50: < 10 nM
[3]
  IC50: < 500 nM
[4]
  IC50: > 5000 nM
[5]; [7]
  EC50: < 10 nM

## Cc1ccc(-n2nc(C(C)(C)C)cc2NC(=O)Nc2ccc(OCc3ccnc(NC(=O)N4CCN(S(C)(=O)=O)C4=O)c3)c3ccccc23)cc1 [Example 18, N-(4-((4-(3-(3-tert-Butyl-1-p-tolyl-1H-pyrazol-5-yl)ureido)naphthalen-1-yloxy)methyl)pyridin-2-yl)-3-(methylsulfonyl)-2-oxoimidazolidine-1-carboxamide]
[1]
  MTT 4 hr: − (− <30%)
  MTT 24 hr: − (− <30%)
[2]; [6]
  IC50: < 10 nM
[3]
  IC50: < 500 nM
[4]
  IC50: > 5000 nM
[5]; [7]
  EC50: < 500 nM

## COc1ccc(CN(C)CC(=O)Nc2cc(COc3ccc(NC(=O)Nc4cc(C(C)(C)C)nn4-c4ccc(C)cc4)c4ccccc34)ccn2)cc1 [Example 28, N-(4-((4-(3-(3-tert-Butyl-1-p-tolyl-1H-pyrazol-5-yl)ureido)naphthalen-1-yloxy)methyl)pyridin-2-yl)-2-((4-methoxybenzyl)(methyl)amino)acetamide]
[1]
  MTT 4 hr: − (− <30%)
  MTT 24 hr: − (− <30%)
[2]; [6]
  IC50: < 10 nM
[3]
  IC50: < 500 nM
[4]
  IC50: < 5000 nM
[5]; [7]
  EC50: < 10 nM

## COCC(=O)Nc1cc(COc2ccc(NC(=O)Nc3cc(C(C)(C)C)nn3-c3ccc(C)cc3)c3ccccc23)ccn1 [Example 1, N-(4-((4-(3-(3-tert-Butyl-1-p-tolyl-1H-pyrazol-5-yl)ureido)naphthalen-1-yloxy)methyl)pyridin-2-yl)-2-methoxyacetamide]
[1]; 4, 24 h (10 μg/ml)
  Differentiated U937 cells MTT Assay: Negative^2
[1]
  MTT 4 hr: − (− <30%)
  MTT 24 hr: − (− <30%)

## CNC(=O)Nc1cc(COc2ccc(NC(=O)Nc3cc(C(C)(C)C)nn3-c3ccc(C)cc3)c3ccccc23)ccn1 [Example 2, Methyl 4-((4-(3-(3-tert-butyl-1-p-tolyl-1H-pyrazol-5-yl)ureido)naphthalen-1-yloxy)methyl)pyridin-2-ylurea]
[1]
  MTT 4 hr: − (− <30%)
  MTT 24 hr: − (− <30%)
[2]; [6]
  IC50: < 500 nM
[4]
  IC50: < 500 nM
[5]; [7]
  EC50: < 500 nM

## COCC(=O)Nc1cnccc1COc1ccc(NC(=O)Nc2cc(C(C)(C)C)nn2-c2ccc(C)cc2)c2ccccc12 [Example 35, N-(4-((4-(3-(3-tert-Butyl-1-p-tolyl-1H-pyrazol-5-yl)ureido)naphthalen-1-yloxy)methyl)pyridin-3-yl)-2-methoxyacetamide]
[1]
  MTT 4 hr: − (− <30%)
  MTT 24 hr: − (− <30%)
[4]
  IC50: > 5000 nM

## COCCNC(=O)CNC(=O)Nc1cc(COc2ccc(NC(=O)Nc3cc(C(C)(C)C)nn3-c3ccc(C)cc3)c3ccccc23)ccn1 [Example 15, 2-(3-(4-((4-(3-(3-tert-Butyl-1-p-tolyl-1H-pyrazol-5-yl)ureido)naphthalen-1-yloxy)methyl)pyridin-2-yl)ureido)-N-(2-methoxyethyl)acetamide]
[1]
  MTT 4 hr: − (− <30%)
  MTT 24 hr: − (− <30%)
[2]; [6]
  IC50: < 10 nM
[4]
  IC50: < 500 nM
[5]; [7]
  EC50: < 500 nM

## COCCNCC(=O)Nc1cc(COc2ccc(NC(=O)Nc3cc(C(C)(C)C)nn3-c3ccc(C)cc3)c3ccccc23)ccn1 [Example 25, N-(4-((4-(3-(3-tert-Butyl-1-p-tolyl-1H-pyrazol-5-yl)ureido)naphthalen-1-yloxy)methyl)pyridin-2-yl)-2-(2-methoxyethylamino)acetamide]
[1]
  MTT 4 hr: − (− <30%)
  MTT 24 hr: − (− <30%)
[2]; [6]
  IC50: < 10 nM
[4]
  IC50: < 500 nM
[5]; [7]
  EC50: < 10 nM

## COCCOCC(=O)Nc1cnccc1COc1ccc(NC(=O)Nc2cc(C(C)(C)C)nn2-c2ccc(C)cc2)c2ccccc12 [Example 36, N-(4-((4-(3-(3-tert-Butyl-1-p-tolyl-1H-pyrazol-5-yl)ureido)naphthalen-1-yloxy)methyl)pyridin-3-yl)-2-(2-methoxyethoxy)acetamide]
[1]
  MTT 4 hr: − (− <30%)
  MTT 24 hr: − (− <30%)
[2]; [8]
  IC50: < 500 nM
[4]
  IC50: > 5000 nM
[5]; [9]
  EC50: < 10 nM
